{
  "source": "patent US10647732B2",
  "about": "“N-annulated perylene diimide dimers with active pyrrolic N—H bonds” (UTI Limited Partnership, priority 2018, dated 2020)",
  "key": {"[1]": {"test": "Thermal stability by TGA and DSC", "assay_type": "physicochemical", "description": "Decomposition occurred above 390° C. as determined by thermal gravimetric analysis (TGA, FIG. 4A) and no phase transitions were observed up to 350° C. as determined by differential scanning calorimetry (DSC) (see FIG. 5A). This stability is similar to that of compound 5. TGA of compound 4 is illustrated in FIG. 4B. The TGA were run under N2 at 2° C. per min.\nThe impact of thermal annealing on the thin-film optical absorption profile is an important factor for use of such dimers. The BOC functionalized derivative 4 was synthesized at least in part to enable facile solution processing of the PDI dimer and generation of 3 in the solid film through thermal deprotection after film formation. FIGS. 5A-5C are DSC plots for compounds 3, 4 and 5, respectively, run under N2 at 10° C. per min. For clarity, the second and third trials of each cooling run and the third trial of each heating run is omitted for all species because the data is indistinguishable from previous runs. During the first heating trial of compound 4, an endothermic peak is clearly present in the plot with an onset occurring at 160° C. This was assumed to be the temperature where cleavage of the protecting group begins to occur and this is confirmed by the fact that this feature is not present in the second heating trial, which has a profile strongly resembling that of the heated NH Dimer 3 and further confirmed by bulk deprotection of compound 4 in an oven at 180° C. The first heating trial of compound 3 features a smooth, downward sloping line. […] This feature is due to a cold-crystallization and has previously been observed in similar molecules.\nThus, films were thermally annealed above this temperature (e.g., at 200° C.) to ensure the BOC protecting group was removed. Films of all three compounds 3-5 were studied."}, "[2]": {"test": "Solubility in organic solvents", "conditions": "organic solvent or mixture"}, "physchem": {"test": "physchem", "conditions": "organic solvent or mixture"}, "[3]": {"test": "Cyclic voltammetry in dichloromethane solution", "assay_type": "physicochemical", "description": "The electron affinity, 3.8 eV, and ionization potential, 5.8 eV, were determined from the onset of reduction (ca. −1.0V) and oxidation (ca. 1.0V), respectively, using a conversion value of 4.8. These values are similar to those of previously reported PDI dimers and indicate that compound 3 is suitable for use as an electron acceptor and transporting material in organic electronic devices. An analogous normalized CV plot of compound 4 is provided in FIG. 2B, where no oxidation is observed due to the electron withdrawing nature of the BOC group.\nCyclic Voltammetry (CV): All electrochemical measurements were performed using a CH Instruments potentiostat in a standard three-electrode configuration equipped with a silver wire pseudo-reference, platinum wire counter electrode and glassy carbon working electrode. The cyclic voltammetry experiments were performed in an anhydrous solution of dichloromethane (CH2Cl2) with ˜0.1 M tetrabutylammonium-hexafluorophosphate (TBAPF6) supporting electrolyte. Samples were scanned at a rate of 100 mV/s following a dry N2 purge to deoxygenate the solution, unless otherwise noted. Solution CV measurements were carried out with a sample concentration of ˜0.5 mg/mL in CH2Cl2, unless otherwise noted. Estimations of the energy levels were obtained by correlating the onset (Eox Fc/Fc+, Ered Fc/Fc+) to the normal hydrogen electrode (NHE), assuming a HOMO energy level of 4.80 eV for Fc/Fc+: E(HOMO)=−(Eox+4.80), E(LUMO)=−(Ered+4.80) UV-Visible Spectroscopy (UV/vis): All absorption measurements were recorded using an Agilent Technologies Cary 60 UV-vis spectrometer at room temperature. All solution UV/vis experiments were run in chloroform (CHCl3) using 2 mm quartz cuvettes and diluted 1% wt/v solutions, unless otherwise noted. Thin-films were prepared by spin-coating 1% wt/v solutions from CHCl3 onto Corning glass micro slides, unless otherwise noted. Prior to use, glass slides were cleaned with soap and water, acetone and isopropanol, and followed by UV/ozone treatment using a Novascan UV/ozone cleaning system."}},
  "data": [
    {"compound": "CCC(CC)n1c(=O)c2ccc3c4c(-c5cc6c(=O)n(C(CC)CC)c(=O)c7cc8c9c(c5c5ccc%10c(=O)n(C(CC)CC)c(=O)c%11cc(c9c5c%10%11)n8C(=O)OC(C)(C)C)c67)cc5c(=O)n(C(CC)CC)c(=O)c6cc7c(c4c56)c4c3c2c(cc4n7C(=O)OC(C)(C)C)c1=O", "note": "[Compound 4, tPDI2N—BOC]", "values": [
      {"measurement": "onset of endothermic peak (cleavage of the protecting group begins)", "setting": "[1]; DSC first heating trial, under N2 at 10° C. per min", "result": 160, "unit": "°C"},
      {"measurement": "loss of the BOC group", "setting": "[1]; TGA and DSC", "result": "~170", "unit": "°C"}
    ]},
    {"compound": "CCCCCCn1c2cc3c(=O)n(C(CC)CC)c(=O)c4ccc5c6c(-c7cc8c(=O)n(C(CC)CC)c(=O)c9cc%10c%11c(c7c7ccc%12c(=O)n(C(CC)CC)c(=O)c%13cc(c%11c7c%12%13)n%10CCCCCC)c89)cc7c(=O)n(C(CC)CC)c(=O)c8cc1c(c6c78)c2c5c43", "note": "[Compound 5, tPDI2N-Hex]", "values": [
      {"measurement": "solubility", "setting": "[2]", "result": "> 50000", "unit": "µg/mL"}
    ]},
    {"compound": "CCC(CC)n1c(=O)c2ccc3c4c(-c5cc6c(=O)n(C(CC)CC)c(=O)c7cc8[nH]c9cc%10c(=O)n(C(CC)CC)c(=O)c%11ccc%12c5c(c67)c8c9c%12c%11%10)cc5c(=O)n(C(CC)CC)c(=O)c6cc7[nH]c8cc(c1=O)c2c3c8c7c4c56", "note": "[Compound 3, tPDI2N—H]", "values": [
      {"measurement": "solubility", "setting": "physchem", "result": "~5000", "unit": "µg/mL"},
      {"measurement": "decomposition temperature", "setting": "[1]; TGA under N2 at 2° C. per min", "result": "above 390 °C"},
      {"measurement": "oxidation waves E1/2", "setting": "[3]; dichloromethane solution, hexafluorophosphate electrolyte", "result": 1.1, "unit": "V vs. Fc/Fc+"},
      {"measurement": "ionization potential", "setting": "[3]; from onset of oxidation (ca. 1.0V), conversion value of 4.8", "result": 5.8, "unit": "eV"},
      {"measurement": "electron affinity", "setting": "[3]; from onset of reduction (ca. -1.0V), conversion value of 4.8", "result": 3.8, "unit": "eV"}
    ]}
  ]
}
